In brackets after ≈: the same amount, converted by molar mass. Bounds are passed on as bounds.

Data set [1] deals with Human immunodeficiency virus 1. Briefly: Antiviral activity against HIV1 3B infected in human MT4 cells assessed as protection against virus-induced cytopathogenic effect after 5 days by MTT assay. Type of data set: functional, organism-based. Conditions: for IC50: Human immunodeficiency virus 1, 3B, MT4, 120 h.
Data set [2] is described as follows: Cytotoxicity against human MT4 cells […] assessed as cell growth inhibition after 5 days by MTT assay. Type of data set: cell-based.
Another data set relates to Vero. As to the kind of experiment: Cytotoxicity against African green monkey Vero cells assessed as cell growth inhibition after 24 hrs by MTT assay. In kind it is cell-based. Conditions: Chlorocebus sabaeus.

Turning to `O=c1[nH]cnc2c1ncn2[C@H]1CC[C@@H](CO)O1` [DIDANOSINE], the IC50 in data set [1] was found to be 17.9 µg/mL (≈ 76 µM).

Regarding `Cc1ccc(-c2nc3cc(F)c(Cl)cc3nc2-c2ccc(C)cc2)cc1`, the cytotoxic concentration (CC50) at 120 h in data set [2] was 27.8 µg/mL (≈ 76.6 µM). For the same molecule, in data set [1], the “%max” value is listed as 4% and the 50% inhibitory concentration (IC50) is greater than 27.8 µg/mL. Besides, the concentration for half-maximal inhibition (IC50) in the data set with Vero is greater than 100 µg/mL.

Take `COc1ccc(-c2nc3cc(F)c(Cl)cc3nc2-c2ccc(OC)cc2)cc1`: the 50% cytotoxic concentration (CC50) at 120 h in data set [2] is 30.6 µg/mL (≈ 77.4 µM). In addition, in data set [1], the “%max” value was 1% and the IC50 was greater than 30.5 µg/mL. Besides, the IC50 in the data set on Vero was greater than 100 µg/mL.

Turning to `Cc1ccnc2c1NC(=O)c1cccnc1N2C1CC1` [NEVIRAPINE], the IC50 in data set [1] was 0.075 µg/mL (≈ 0.282 µM); in the data set on Vero it was greater than 100 µg/mL.

Take `Fc1cc2nc(-c3ccccc3)c(-c3ccccc3)nc2cc1Cl`: in data set [2], the CC50 at 120 h was 11.8 µg/mL (≈ 35.2 µM). Moreover, the “%max” value in data set [1] is 3%. The half-maximal inhibitory concentration (IC50) in data set [1] was greater than 11.8 µg/mL; in the data set with Vero, greater than 100 µg/mL.

Take `Cc1nc2cc(F)c(Cl)cc2nc1C`: the CC50 at 120 h in data set [2] turned out to be 49.7 µg/mL (≈ 236 µM). Also, in data set [1], the “%max” value is given as 5% and the IC50 was greater than 49.7 µg/mL. Besides, the IC50 in the data set with Vero was greater than 100 µg/mL.

Take `Nc1ccn([C@@H]2CS[C@H](CO)O2)c(=O)n1` [LAMIVUDINE]: the CC50 at 120 h in data set [2] stood at 20 µg/mL (≈ 87.2 µM). The IC50 in data set [1] stood at 0.58 µg/mL (≈ 2.53 µM).

In the case of `Nc1nc2cc(F)c(Cl)cc2nc1N`, in data set [2], the 50% cytotoxic concentration (CC50) at 120 h is 38.5 µg/mL (≈ 181 µM). For the same molecule, the “%max” value in data set [1] is on record as 9%. Besides, the values for the concentration for half-maximal inhibition (IC50) (in data set [1]; in the data set with Vero) were greater than 38.4 µg/mL and greater than 100 µg/mL, respectively.

As to `Fc1cc2nccnc2cc1Cl`, the half-maximal cytotoxic concentration (CC50) at 120 h in data set [2] came to 91.2 µg/mL (≈ 499 µM). For the same molecule, in data set [1], the “%max” value was 3%. Moreover, the figures for the half-inhibitory concentration (IC50) (in data set [1]; in the data set with Vero) were greater than 91.1 µg/mL and 13.7 µg/mL (≈ 75 µM), respectively.

As for `Fc1ccc(-c2nc3cc(F)c(Cl)cc3nc2-c2ccc(F)cc2)cc1`, in data set [2], the CC50 at 120 h was found to be 15.4 µg/mL (≈ 41.7 µM). In data set [1], the “%max” value came out at 3% and the IC50 is greater than 15.4 µg/mL. Besides, the IC50 in the data set with Vero was greater than 100 µg/mL.

Consider `CC(=O)O[C@H]1C(=O)[C@@]2(C)[C@H]([C@H](OC(=O)c3ccccc3)[C@]3(O)C[C@H](OC(=O)[C@H](O)[C@@H](NC(=O)c4ccccc4)c4ccccc4)C(C)=C1C3(C)C)[C@]1(OC(C)=O)CO[C@@H]1C[C@@H]2O` [PACLITAXEL], for which the IC50 with Vero was greater than 100 µg/mL.

For `Cc1cn([C@H]2C[C@H](N=[N+]=[N-])[C@@H](CO)O2)c(=O)[nH]c1=O` [ZIDOVUDINE], the CC50 at 120 h in data set [2] turned out to be 2 µg/mL (≈ 7.48 µM). Moreover, the IC50 in data set [1] came out at 0.002 µg/mL (≈ 0.00748 µM).

The values above are taken from ChEMBL document CHEMBL3808294, “Design, synthesis and anti-HIV activity of novel quinoxaline derivatives” (Eur J Med Chem, 2016).
